# Legend:
# Assay in all cases: Kinase panel (mobility shift)
# Assay type in all cases: biochemical
# TIE2 = TIE2 (Homo sapiens, UniProt Q02763)
# Summary of the method: (§1)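 Compound at 5 um + kinase + fluor-labeled substrate, standardized mix; rxn stopped; electrophoretic separation of product/substrate on chip; activity = product vs substrate peak fluorescence. Bins A ≥95%, B 90-94%, C 80-89%.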
# SRC = SRC (Homo sapiens, UniProt P12931)
# Summary of the method: as §1
# P38-a = P38-a (Homo sapiens, UniProt Q16539); details: at 5 um
# Sequence of P38-a (Q16539 whole entry): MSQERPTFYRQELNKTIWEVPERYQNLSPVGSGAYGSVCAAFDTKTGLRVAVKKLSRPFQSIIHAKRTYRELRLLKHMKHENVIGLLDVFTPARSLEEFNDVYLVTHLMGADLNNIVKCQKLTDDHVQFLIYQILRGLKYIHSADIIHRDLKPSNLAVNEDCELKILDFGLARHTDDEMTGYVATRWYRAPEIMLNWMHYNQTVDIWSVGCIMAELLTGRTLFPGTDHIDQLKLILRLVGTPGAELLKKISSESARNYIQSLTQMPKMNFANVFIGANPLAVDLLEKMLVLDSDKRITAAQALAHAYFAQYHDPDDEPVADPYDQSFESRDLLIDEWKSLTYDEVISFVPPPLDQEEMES
# Summary of the method: as §1
# TYRO3 = target: T1, TYRO3 (Homo sapiens, UniProt Q06418)
# T1 sequence (Q06418 41-890): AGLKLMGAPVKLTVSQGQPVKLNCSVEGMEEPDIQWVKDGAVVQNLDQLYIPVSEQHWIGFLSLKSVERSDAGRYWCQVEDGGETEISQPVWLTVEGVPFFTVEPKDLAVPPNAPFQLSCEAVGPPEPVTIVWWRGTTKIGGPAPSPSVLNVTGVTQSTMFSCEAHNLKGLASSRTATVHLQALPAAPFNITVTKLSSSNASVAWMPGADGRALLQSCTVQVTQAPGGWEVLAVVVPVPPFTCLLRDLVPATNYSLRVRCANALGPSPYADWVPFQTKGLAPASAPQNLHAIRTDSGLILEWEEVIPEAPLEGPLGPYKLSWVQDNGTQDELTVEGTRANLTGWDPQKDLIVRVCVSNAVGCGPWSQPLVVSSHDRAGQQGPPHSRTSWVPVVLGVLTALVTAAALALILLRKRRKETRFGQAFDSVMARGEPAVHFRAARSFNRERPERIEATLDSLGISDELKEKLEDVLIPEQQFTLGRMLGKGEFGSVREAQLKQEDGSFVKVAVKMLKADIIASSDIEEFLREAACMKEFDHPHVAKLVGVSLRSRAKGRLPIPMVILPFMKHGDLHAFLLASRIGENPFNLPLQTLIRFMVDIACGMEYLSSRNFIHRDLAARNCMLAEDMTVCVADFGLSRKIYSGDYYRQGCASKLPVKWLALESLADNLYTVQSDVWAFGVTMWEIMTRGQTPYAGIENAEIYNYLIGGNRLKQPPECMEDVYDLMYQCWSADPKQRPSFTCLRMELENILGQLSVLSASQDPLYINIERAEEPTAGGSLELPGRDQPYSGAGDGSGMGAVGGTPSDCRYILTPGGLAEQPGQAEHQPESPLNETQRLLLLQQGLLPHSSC
# Summary of the method: as §1
# TRKB = TRKB (Homo sapiens, UniProt Q16620)
# Sequence of TRKB (Q16620 32-822, species assumed): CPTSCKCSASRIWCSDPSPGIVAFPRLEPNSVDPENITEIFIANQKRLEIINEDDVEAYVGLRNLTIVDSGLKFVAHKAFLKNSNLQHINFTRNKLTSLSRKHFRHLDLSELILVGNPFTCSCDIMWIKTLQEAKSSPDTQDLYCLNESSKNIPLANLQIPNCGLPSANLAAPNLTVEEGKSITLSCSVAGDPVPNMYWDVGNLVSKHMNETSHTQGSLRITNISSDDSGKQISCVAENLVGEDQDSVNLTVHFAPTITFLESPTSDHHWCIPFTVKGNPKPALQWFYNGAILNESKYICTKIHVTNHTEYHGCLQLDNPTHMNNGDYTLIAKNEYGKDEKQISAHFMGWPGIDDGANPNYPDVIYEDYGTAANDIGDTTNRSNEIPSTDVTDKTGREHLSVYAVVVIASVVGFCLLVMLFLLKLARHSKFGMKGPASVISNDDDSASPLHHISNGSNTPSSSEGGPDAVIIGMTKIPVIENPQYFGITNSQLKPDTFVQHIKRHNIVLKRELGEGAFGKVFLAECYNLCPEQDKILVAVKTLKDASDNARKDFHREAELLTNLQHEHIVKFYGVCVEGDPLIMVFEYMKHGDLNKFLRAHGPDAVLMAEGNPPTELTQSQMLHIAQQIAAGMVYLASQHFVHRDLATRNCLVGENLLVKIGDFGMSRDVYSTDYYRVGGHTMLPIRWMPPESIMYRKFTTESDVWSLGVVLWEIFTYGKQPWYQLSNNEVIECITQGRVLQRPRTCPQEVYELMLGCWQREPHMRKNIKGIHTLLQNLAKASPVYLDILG
# Summary of the method: as §1
# LOK = LOK (Homo sapiens, UniProt O94804); details: at 5 um
# Sequence of LOK (O94804 whole entry, species assumed): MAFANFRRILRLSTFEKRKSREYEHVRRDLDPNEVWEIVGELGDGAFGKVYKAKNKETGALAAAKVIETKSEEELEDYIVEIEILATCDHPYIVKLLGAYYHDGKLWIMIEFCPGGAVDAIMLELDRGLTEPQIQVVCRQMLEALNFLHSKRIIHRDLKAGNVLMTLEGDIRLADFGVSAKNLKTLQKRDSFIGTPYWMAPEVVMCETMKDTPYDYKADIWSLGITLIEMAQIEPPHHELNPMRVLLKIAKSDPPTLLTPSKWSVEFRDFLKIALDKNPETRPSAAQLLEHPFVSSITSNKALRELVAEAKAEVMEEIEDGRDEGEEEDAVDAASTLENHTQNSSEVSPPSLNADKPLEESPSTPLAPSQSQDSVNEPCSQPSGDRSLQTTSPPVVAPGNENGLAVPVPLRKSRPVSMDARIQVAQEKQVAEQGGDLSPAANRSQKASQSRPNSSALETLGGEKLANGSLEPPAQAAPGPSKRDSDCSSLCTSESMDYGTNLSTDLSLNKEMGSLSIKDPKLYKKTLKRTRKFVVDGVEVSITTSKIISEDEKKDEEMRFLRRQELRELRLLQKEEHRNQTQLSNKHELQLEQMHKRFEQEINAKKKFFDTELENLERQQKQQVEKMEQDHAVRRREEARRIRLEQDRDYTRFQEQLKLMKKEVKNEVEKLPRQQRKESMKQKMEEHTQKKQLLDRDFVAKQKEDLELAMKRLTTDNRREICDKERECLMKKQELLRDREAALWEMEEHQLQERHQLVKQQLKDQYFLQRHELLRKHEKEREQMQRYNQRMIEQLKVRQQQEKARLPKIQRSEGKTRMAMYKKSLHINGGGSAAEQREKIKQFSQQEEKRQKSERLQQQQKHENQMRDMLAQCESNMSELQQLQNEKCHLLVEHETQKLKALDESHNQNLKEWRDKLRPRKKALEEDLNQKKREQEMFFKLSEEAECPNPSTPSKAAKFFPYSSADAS
# Summary of the method: as §1
# EPH-A8 = target: T2, EPH-A8 (Homo sapiens, UniProt P29322)
# T2 sequence (P29322 28-1005): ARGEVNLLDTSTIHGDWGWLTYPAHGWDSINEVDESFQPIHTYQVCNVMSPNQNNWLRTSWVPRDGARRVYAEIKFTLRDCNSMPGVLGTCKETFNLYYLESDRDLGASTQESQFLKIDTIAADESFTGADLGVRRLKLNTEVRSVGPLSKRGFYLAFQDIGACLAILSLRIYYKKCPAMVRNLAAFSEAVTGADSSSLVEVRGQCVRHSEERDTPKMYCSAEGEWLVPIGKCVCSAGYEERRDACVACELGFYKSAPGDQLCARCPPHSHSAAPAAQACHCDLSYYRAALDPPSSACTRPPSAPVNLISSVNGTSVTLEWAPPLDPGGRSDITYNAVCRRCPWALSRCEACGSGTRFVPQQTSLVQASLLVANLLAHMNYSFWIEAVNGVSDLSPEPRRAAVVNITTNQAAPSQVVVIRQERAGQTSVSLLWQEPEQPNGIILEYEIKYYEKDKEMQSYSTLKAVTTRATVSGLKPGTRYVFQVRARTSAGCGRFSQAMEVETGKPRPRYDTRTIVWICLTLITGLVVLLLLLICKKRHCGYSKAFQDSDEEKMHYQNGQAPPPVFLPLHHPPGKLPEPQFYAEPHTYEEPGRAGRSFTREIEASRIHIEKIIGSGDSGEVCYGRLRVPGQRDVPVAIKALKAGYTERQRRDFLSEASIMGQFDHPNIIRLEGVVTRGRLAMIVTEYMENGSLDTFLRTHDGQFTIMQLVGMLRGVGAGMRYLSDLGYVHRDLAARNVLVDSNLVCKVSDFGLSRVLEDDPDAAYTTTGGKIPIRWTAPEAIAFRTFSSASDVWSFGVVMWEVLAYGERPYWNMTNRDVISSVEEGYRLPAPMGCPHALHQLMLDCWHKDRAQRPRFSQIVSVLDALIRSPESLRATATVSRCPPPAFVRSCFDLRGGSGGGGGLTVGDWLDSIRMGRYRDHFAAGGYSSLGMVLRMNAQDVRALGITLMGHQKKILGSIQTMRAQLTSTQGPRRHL
# Summary of the method: as §1
# Sequence of TIE2 (Q02763 23-1124, species assumed): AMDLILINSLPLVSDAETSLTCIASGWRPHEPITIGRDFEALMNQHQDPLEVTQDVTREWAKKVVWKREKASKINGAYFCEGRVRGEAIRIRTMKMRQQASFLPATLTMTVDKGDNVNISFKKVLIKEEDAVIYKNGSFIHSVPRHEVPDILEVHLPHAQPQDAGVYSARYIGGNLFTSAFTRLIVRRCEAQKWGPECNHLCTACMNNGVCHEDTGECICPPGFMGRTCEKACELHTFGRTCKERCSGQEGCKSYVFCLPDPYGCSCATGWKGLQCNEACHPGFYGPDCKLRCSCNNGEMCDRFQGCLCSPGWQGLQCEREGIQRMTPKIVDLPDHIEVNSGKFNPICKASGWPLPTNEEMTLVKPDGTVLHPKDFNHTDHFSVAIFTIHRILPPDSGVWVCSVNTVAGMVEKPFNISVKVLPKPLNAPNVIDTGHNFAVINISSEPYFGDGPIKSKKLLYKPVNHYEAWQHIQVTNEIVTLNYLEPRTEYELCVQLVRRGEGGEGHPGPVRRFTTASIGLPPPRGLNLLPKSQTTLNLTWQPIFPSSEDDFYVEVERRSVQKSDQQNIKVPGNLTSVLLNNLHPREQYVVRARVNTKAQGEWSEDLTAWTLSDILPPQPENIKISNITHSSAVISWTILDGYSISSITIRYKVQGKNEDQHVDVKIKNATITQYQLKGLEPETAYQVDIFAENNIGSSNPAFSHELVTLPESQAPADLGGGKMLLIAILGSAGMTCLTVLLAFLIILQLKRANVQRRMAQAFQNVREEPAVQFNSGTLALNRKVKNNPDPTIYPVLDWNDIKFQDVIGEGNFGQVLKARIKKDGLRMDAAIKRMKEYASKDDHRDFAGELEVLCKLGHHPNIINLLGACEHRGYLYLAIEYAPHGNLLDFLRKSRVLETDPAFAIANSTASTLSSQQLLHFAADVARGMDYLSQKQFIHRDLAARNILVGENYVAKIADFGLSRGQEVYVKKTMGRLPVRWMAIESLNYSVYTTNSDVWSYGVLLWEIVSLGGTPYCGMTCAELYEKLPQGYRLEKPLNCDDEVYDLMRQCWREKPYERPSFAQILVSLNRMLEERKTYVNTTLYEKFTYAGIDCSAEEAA
# Sequence of SRC (P12931 whole entry, species assumed): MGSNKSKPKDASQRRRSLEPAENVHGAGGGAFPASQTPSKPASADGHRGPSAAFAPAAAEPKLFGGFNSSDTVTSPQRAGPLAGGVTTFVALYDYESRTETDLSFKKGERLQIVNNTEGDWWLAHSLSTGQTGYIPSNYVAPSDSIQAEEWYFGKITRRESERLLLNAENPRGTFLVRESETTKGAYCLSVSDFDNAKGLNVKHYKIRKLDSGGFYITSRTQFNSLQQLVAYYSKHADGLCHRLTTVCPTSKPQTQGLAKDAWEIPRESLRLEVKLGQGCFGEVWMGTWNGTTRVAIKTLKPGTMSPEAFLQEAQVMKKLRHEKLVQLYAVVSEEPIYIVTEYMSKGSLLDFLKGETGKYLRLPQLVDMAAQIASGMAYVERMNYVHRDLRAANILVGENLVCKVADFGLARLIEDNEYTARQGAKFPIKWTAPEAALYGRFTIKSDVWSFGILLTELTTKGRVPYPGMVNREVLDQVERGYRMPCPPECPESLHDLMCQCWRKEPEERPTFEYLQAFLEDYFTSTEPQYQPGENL
Compound,inhibition at 5 µM (TIE2),inhibition at 5 µM (SRC),"inhibition of kinase activity, P38-a (P38-a)",inhibition at 5 µM (TYRO3),inhibition at 5 µM (TRKB),"inhibition of kinase activity, LOK (LOK)",inhibition at 5 µM (EPH-A8)
CNC(=O)c1cc(Oc2ccc(NC(=O)c3nc(OC4CC4)oc3-c3ccc(F)cc3)cc2F)ccn1 [Compound 32],50 to 79%,50 to 79%,D (category D for 50-79),90 to 94%,< 50%,B (B=90%-94% at 5 um),80 to 89%
CNC(=O)c1cc(Oc2ccc(NC(=O)c3nc(C4CC4)oc3-c3ccc(F)cc3)cc2F)ccn1 [Compound 26],80 to 89%,50 to 79%,B (B=90%-94% at 5 um),90 to 94%,50 to 79%,C (C=80%-89% at 5 um),80 to 89%
CNC(=O)c1cc(Oc2ccc(NC(=O)c3nc(OC)oc3-c3ccc(F)cc3)cc2F)ccn1 [Compound 15],< 50%,< 50%,D (category D for 50-79),90 to 94%,50 to 79%,C (C=80%-89% at 5 um),80 to 89%
CNC(=O)c1cc(Oc2ccc(NC(=O)c3nc(SC)oc3-c3ccc(F)cc3Cl)cc2)ccn1 [Compound 3],50 to 79%,80 to 89%,E (category E is less than 50%),90 to 94%,80 to 89%,E (category E is less than 50%),50 to 79%
CSc1nc(C(=O)Nc2ccc(Oc3ccnc(C(=O)NCCN(C)C)c3)c(F)c2)c(-c2ccc(F)cc2)o1 [Compound 41],< 50%,< 50%,A (A=95% or greater at 5 um),50 to 79%,< 50%,E (category E is less than 50%),50 to 79%
CNC(=O)c1cc(Oc2ccc(NC(=O)c3nc(NC)oc3-c3ccc(F)s3)cc2F)ccn1 [Compound 17],< 50%,< 50%,E (category E is less than 50%),< 50%,50 to 79%,D (category D for 50-79),< 50%
COc1nc(C(=O)Nc2ccc(Oc3ccnc(C(=O)NCC(F)(F)F)c3)c(F)c2)c(-c2ccc(F)cc2)o1 [Compound 43],< 50%,< 50%,E (category E is less than 50%),< 50%,< 50%,E (category E is less than 50%),< 50%
CNC(=O)c1cc(Oc2ccc(NC(=O)c3nc(COC)oc3-c3ccc(F)cc3)cc2F)ccn1 [Compound 30],80 to 89%,50 to 79%,C (C=80%-89% at 5 um),≥ 95%,80 to 89%,A (A=95% or greater at 5 um),90 to 94%
CSc1nc(C(=O)Nc2ccc(Oc3ccnc(C(=O)NC4COC4)c3)c(F)c2)c(-c2ccc(F)c(F)c2)o1 [Compound 37],< 50%,< 50%,C (C=80%-89% at 5 um),< 50%,< 50%,E (category E is less than 50%),< 50%
CNC(=O)c1cc(Oc2ccc(NC(=O)c3nc(SC)oc3-c3ccc(Cl)s3)cc2)ccn1 [Compound 5],< 50%,< 50%,E (category E is less than 50%),80 to 89%,< 50%,E (category E is less than 50%),50 to 79%
[2H]C([2H])([2H])NC(=O)c1cc(Oc2ccc(NC(=O)c3nc(SC)oc3-c3ccc(F)c(F)c3)cc2F)ccn1 [Compound 33],< 50%,< 50%,C (C=80%-89% at 5 um),50 to 79%,< 50%,C (C=80%-89% at 5 um),< 50%
CNC(=O)c1cc(Oc2ccc(NC(=O)c3nc(SC)oc3-c3ccc(F)cc3F)cc2F)ccn1 [Compound 12],50 to 79%,50 to 79%,D (category D for 50-79),90 to 94%,80 to 89%,D (category D for 50-79),50 to 79%
CSc1nc(C(=O)Nc2ccc(Oc3ccnc(C(=O)NC4CCN(C)CC4)c3)c(F)c2)c(-c2ccc(F)cc2)o1 [Compound 42],< 50%,< 50%,A (A=95% or greater at 5 um),< 50%,< 50%,E (category E is less than 50%),< 50%
CSc1nc(C(=O)Nc2ccc(Oc3ccnc(N)c3Cl)c(F)c2)c(-c2ccc(F)cc2)o1 [Compound 1],< 50%,< 50%,D (category D for 50-79),50 to 79%,< 50%,E (category E is less than 50%),< 50%
CSc1nc(C(=O)Nc2ccc(Oc3ccnc(C(=O)NC4COC4)c3)c(F)c2)c(-c2ccc(F)s2)o1 [Compound 28],< 50%,< 50%,E (category E is less than 50%),< 50%,< 50%,E (category E is less than 50%),< 50%
CNC(=O)c1ccc(Oc2ccc(NC(=O)c3nc(Cl)oc3-c3ccc(F)cc3)c(F)c2)cn1 [Compound 36],< 50%,< 50%,E (category E is less than 50%),< 50%,< 50%,E (category E is less than 50%),< 50%
CSc1nc(C(=O)Nc2ccc(Oc3ccnc(C(=O)NC4CNC4)c3)c(F)c2)c(-c2ccc(F)cc2)o1 [Compound 29],< 50%,< 50%,A (A=95% or greater at 5 um),50 to 79%,< 50%,D (category D for 50-79),50 to 79%

# Reference: US11629143B2, “HipK4 inhibitors and uses thereof” (Vibliome Therapeutics, LLC, priority 2020, dated 2023)
